Data reported in patent US20160287568A1, “COMPOSITION OF A NON-NUCLEOSIDE REVERSE TRANSCRIPTASE INHIBITOR” (MERCK SHARP & DOHME CORP., priority 2013, published 2016).
Like-named read-outs stand apart in the source and are kept apart here.

Assays:
[1] = Pharmacokinetic profile in fasted beagle dogs; assay type: in vivo; settings: dog, blood, po, 1 mg/kg; for Cmax / AUC(0-t): 3 fasted beagle dogs; for AUC(0-t): read-out: AUC0-24
Procedure: The API is Compound A, or a pharmaceutically acceptable salt thereof. Bioavailability is determined in vivo by dosing trial formulations and/or other formulations of the active pharmaceutical ingredient (API) to Beagle dogs at a dose of 1 mg/kg of the API and then measuring the amount of API in the serum or blood as a function of time. The spray dried particles from Spray Dry Process I were made into granules as follows. The particles were blended in a suitable blender (V or Bohle) with microcrystalline cellulose (diluent/compression aid), lactose (diluent/compression aid), croscarmellose sodium (a disintegrant), colloidal silicon dioxide (a glidant), and magnesium stearate (a lubricant). The blended powders were then roller compacted into granules, subjected to extragranular lubrication, and filled into capsules.

[2] = Storage of neat amorphous spray dried drug in open container, crystallization; assay type: physicochemical; settings: neat amorphous drug generated by spray drying
Text: It is well understood that crystallization tendency varies dramatically across active pharmaceutical ingredients (Journal of Pharmaceutical Sciences, Vol. 99, No. 9, September 2010) and the rate of crystallization is a function of the thermodynamic driving force and the mobility of the system (Angell, C. A., Formation of Glasses from Liquids and Biopolymers. Science, 1995. 267(5206): p. 1924-1935. Mullin, J. W., Crystallization. 4th ed. 2001, Oxford: Reed Educational and Professional Publishing Ltd. Hoffman, J. D., Thermodynamic Driving Force in Nucleation and Growth Processes. Journal of Chemical Physics, 1958. 29(5): p. 1192-1193. Adam, G. and Gibbs, J. H., On Temperature Dependence of Cooperative Relaxation Properties in Glass-Forming Liquids. Journal of Chemical Physics, 1965. 43(1): p. 139-146. Ediger, M. D., Supercooled liquids and glasses. Journal of Physical Chemistry, 1996. 100(31): p. 13200-13212.). […] Neat amorphous drug generated by spray drying crystallizes within 2 weeks when stored in an open container at 5° C./ambient relative humidity (RH), 30° C./65% RH, 40° C./75% RH, and 60° C./ambient RH.

[3] = capsule of spray dried dispersion: 10% Compound A, 40% HPMCAS-LG
[4] = comparison capsule: 30% crystalline Compound A without polymer, 5% sodium lauryl sulfate

In the case of `Cn1c(Cn2ccc(C(F)(F)F)c(Oc3cc(Cl)cc(C#N)c3)c2=O)n[nH]c1=O` [Compound A, 3-chloro-5-({1-[(4-methyl-5-oxo-4,5-dihydro-1H-1,2,4-triazol-3-yl)methyl]-2-oxo-4-(trifluoromethyl)-1,2-dihydropyridin-3-yl}oxy)benzonitrile], the Tmax [1] is reported as 4 h, the Cmax [1, 3] is reported as 7.23 ± 0.99 µM and the AUC(0-t) [1, 3] is reported as 137 ± 25.3 µM·h. The Cmax [1, 4] was 3.46 ± 1.59 µM, the AUC(0-t) [1, 4] was 52.4 ± 15.9 µM·h and the time to crystallization ([2]; 5° C./ambient RH) was ≤ 2 weeks. For the same compound, the time to crystallization ([2]; 30° C./65% RH) was ≤ 2 weeks, the time to crystallization ([2]; 40° C./75% RH) was ≤ 2 weeks and the time to crystallization ([2]; 60° C./ambient RH) was ≤ 2 weeks.
